In patent US7022732B2, “Propanolamine derivative having 1, 4-benzodioxane ring” (Nisshin Pharma Inc., priority 2001, dated 2006):

Molecular target: T1, human β3 adrenergic receptor (Homo sapiens, UniProt P13945)
T1 construct: expressed in transfected cells; host or cells: CHO cells (clone G4-I, kept under Geneticin selection)
Test: cAMP production in G4-I cells, stimulating activity of human β3 adrenergic receptor (cAMP EIA)
Type: cell-based
Details: cAMP production relative to isoproterenol maximum, CHO cells (G4-I) expressing human β3 receptor
Procedure: Representative compounds of the invention were assayed for their stimulating activity of human β3 adrenergic receptor. In the tests, there was used G4-I cloned with CHO cells expressing human β3 adrenergic receptor genes. A cAMP EIA kit for use was available from Amersham Farmacia.
G4-I was incubated under the atmosphere of 5% CO2 at 37° C. in a Han's F12 Nutrient Mixture medium containing 10% fetal calf serum, penicillin 100 U/mL, streptomycin 100 μg/mL, amphotericin B 25 μg/mL and Geneticin 400 μg/mL. When the reaction for cAMP production was carried out, frozen cells stocked were incubated for 3 days and then treated with trypsin to prepare a cell suspension. The cell suspension was diluted to 2×10^5 cells/mL with the medium. Then 1 ml each of the diluted suspension was dispensed into a 12-well plate dish.
The cells cultured for 24 hours were used to carry out the cAMP production reaction.
The culture medium was removed from the cells incubated on the 12-well plate dish. The cells were washed twice with 1 mL of Wash Buffer previously warmed to 37° C. and then 0.9 mL of Reaction Buffer was added. Cultivation was carried out on a water bath at 37° C. for 5 minutes and then 0.1 mL of an aqueous solution of the test compound or isoproterenol was added thereto. Reaction was further allowed to take place at 37° C. for 30 minutes. The reaction solution was taken out and then washed twice with 2 mL of D-PBS(-) followed by addition of 1 mL of the Extraction Buffer. The extraction procedure was performed using a plate mixer at 4° C. for 1 hour. The extract was stored at −20° C.
The cell extract frozen at −20° C. was thawed at 4° C. The cAMP of the extract in each well was assayed by means of a cAMP-EIA kit manufactured by Amersham Farmacia. Assay was performed in accordance with the manual attached to the kit. Adsorbance in a 96-well plate was determined using a microplate reader (Model Spectra MAX 250) manufactured by Molecular Device.
The protein amount of the above cell extract was assayed according to the dye-binding method using a CBB solution for quantitative determination of protein (available from Bio-Rad). Bovine serum albumin was used as a protein standard, and absorbance was determined using the above microplate reader (Model Spectra MAX 250) manufactured by Molecular Device.
Determination of cAMP and protein amounts was carried out in duplicate and mean values were adopted as measured values. The cAMP production amount of each sample was represented in terms of a numerical value of the cAMP amount (pmol) divided by cell protein amount (mg) (pmol/mg protein). […] For each sample, cAMP production amount was calculated and a relative cAMP production amount to the maximum cAMP production amount of isoproterenol (% of isoproterenol Max) was determined.

T1 sequence (P13945 whole entry): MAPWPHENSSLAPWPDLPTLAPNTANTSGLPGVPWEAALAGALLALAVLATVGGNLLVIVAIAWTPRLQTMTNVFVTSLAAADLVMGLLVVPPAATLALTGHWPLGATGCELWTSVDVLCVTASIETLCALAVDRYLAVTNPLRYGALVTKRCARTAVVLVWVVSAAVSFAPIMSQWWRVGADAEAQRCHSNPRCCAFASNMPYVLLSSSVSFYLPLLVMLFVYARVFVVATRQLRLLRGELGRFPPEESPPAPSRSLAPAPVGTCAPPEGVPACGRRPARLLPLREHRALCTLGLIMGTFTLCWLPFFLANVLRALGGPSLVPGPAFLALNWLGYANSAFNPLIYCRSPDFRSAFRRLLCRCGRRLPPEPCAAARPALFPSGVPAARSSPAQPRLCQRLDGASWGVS

| Compound | Intrinsic Activity (% of ISP) (test compound 1 μM) | Intrinsic Activity (% of ISP) (test compound 10 μM) |
| --- | --- | --- |
| COc1cc(O)ccc1OC[C@@H](O)CN[C@H](C)Cc1ccc2c(c1)OC[C@H](C(=O)O)O2 [Example 16, 6-[2-(R)-[2-(S)-Hydroxy-3-(4-hydroxy-2-methoxyphenoxy)-propylamino]propyl]-2,3-dihydro-1,4-benzodioxine-2-(R)-carboxylic acid] | 61 % of ISP |  |
| CS(=O)(=O)Nc1cc(OC[C@@H](O)CNCCc2ccc3c(c2)OC[C@H](C(=O)O)O3)ccc1O [Example 4, 6-[2-[2-(S)-Hydroxy-3-(4-hydroxy-3-methanesulfonamido-phenoxy]propylamino]ethyl]-2,3-dihydro-1,4-benzodioxine-2-(R)-carboxylic acid] | 98 % of ISP |  |
| C[C@H](Cc1ccc2c(c1)OC[C@H](C(=O)O)O2)NC[C@H](O)COc1ccc(O)cc1 [Example 12, 6-[2-(R)-[2-(S)-Hydroxy-3-(4-hydroxyphenoxy)propylamino]-propyl]-2,3-dihydro-1,4-benzodioxine-2-(R)-carboxylic acid] |  | 73 % of ISP |
| C[C@H](Cc1ccc2c(c1)OC[C@H](C(=O)O)O2)NC[C@H](O)COc1ccc(O)c(NS(C)(=O)=O)c1 [Example 2, 6-[2-(R)-[2-(S)-Hydroxy-3-(4-hydroxy-3-methanesulfonamidophenoxy)propylamino]propyl]-2,3-dihydro-1,4-benzodioxine-2-(R)-carboxylic acid] | 76 % of ISP |  |
